Tests used:
Type in all cases: in vivo
[1] = system: Beet Armyworm (Spodoptera exigua, LAPHEG) ("BAW"); assay: Bioassays on BAW, 128-well diet tray assay; conditions: 168 h, second instar larvae, 50 μg/cm^2 on artificial diet, 25° C., five to seven days, average of eight wells, read-out: BAW % Control (or Mortality) rating
Outline: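 One to five second-instar larvae were placed per well on artificial diet surface-treated with 50 μg/cm^2 compound from 90:10 acetone-water, dried before infestation. Trays were held at 25 °C, 14:10 light-dark, for five to seven days. Percent mortality was averaged over eight wells.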

[2] = system: Corn Earworm (Helicoverpa zea, HELIZE) ("CEW"); assay: Bioassays on CEW, 128-well diet tray assay; conditions: 168 h, second instar larvae, 50 μg/cm^2 on artificial diet, 25° C., five to seven days, average of eight wells, read-out: CEW % Control (or Mortality) rating
Method: Certain molecules disclosed in this document were tested against BAW, CEW, and CL using procedures described in the following examples. In the reporting of the results, the “BAW, CEW, & CL Rating Table” was used (See Table Section).
Bioassays on CEW were conducted using a 128-well diet tray assay. one to five second instar CEW larvae were placed in each well (3 mL) of the diet tray that had been previously filled with 1 mL of artificial diet to which 50 μg/cm^2 of the test compound (dissolved in 50 μL of 90:10 acetone-water mixture) had been applied (to each of eight wells) and then allowed to dry. Trays were covered with a clear self-adhesive cover, and held at 25° C., 14:10 light-dark for five to seven days. Percent mortality was recorded for the larvae in each well; activity in the eight wells was then averaged. The results are indicated in the table entitled “Table ABC: Biological Results” (See Table Section). Bioassays on CL

[3] = system: Cabbage Looper (Trichoplusia ni, TRIPNI) ("CL"); assay: Bioassays on CL, 128-well diet tray assay; conditions: 168 h, second instar larvae, 50 μg/cm^2 on artificial diet, 25° C., five to seven days, average of eight wells, read-out: CL % Control (or Mortality) rating
Outline: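 Second-instar larvae (one to five per well) on artificial diet surface-treated with 50 μg/cm^2 compound in 90:10 acetone-water, eight wells per treatment. Held at 25° C., 14:10 light-dark for five to seven days. Percent mortality scored per well and averaged over the eight wells.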

[4] = system: Yellow Fever Mosquito (Aedes aegypti, AEDSAE) ("YFM"); assay: Bioassays on YFM, 96-well plate larval assay; conditions: about 1 day-old larvae, from 4000 ppm DMSO master plate diluted, room temperature, scored after 3 days
Outline: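 Compounds from 4000 ppm DMSO master plates, diluted in 90:10 water:acetone, dispensed into 96-well plates, six replicates. About 1-day-old larvae added in liver-powder water. Wells covered, held 3 days at room temperature, then scored for mortality.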

Structure (SMILES) | mortality at 50 µg/cm2 [1] | mortality at 50 µg/cm2 [2] | mortality at 50 µg/cm2 [3] | YFM % Control (or Mortality) rating [4]
FC(F)(F)Oc1ccc(-n2cnc(-c3ccc(NC(=S)Nc4cnccc4C(F)(F)F)cc3)n2)cc1 [F12, 1-(4-(1-(4-(trifluoromethoxy)phenyl)-1H-1,2,4-triazol-3-yl)phenyl)-3-(4-(trifluoromethyl)pyridin-3-yl)thiourea] | 0% | 0% | – | –
FC(F)(F)Oc1ccc(-n2cnc(-c3ccc(NC(=S)Nc4ccccc4-n4cccc4)cc3)n2)cc1 [F74, 1-(2-(1H-Pyrrol-1-yl)phenyl)-3-(4-(1-(4-(trifluoromethoxy)phenyl)-1H-1,2,4-triazol-3-yl)phenyl)thiourea] | 50 to 100% | 50 to 100% | 50 to 100% | –
N#Cc1ccc(NC(=S)Nc2ccc(-c3ncn(-c4ccc(OC(F)(F)F)cc4)n3)cc2)cc1 [F7, 1-(4-Cyanophenyl)-3-(4-(1-(4-(trifluoromethoxy)phenyl)-1H-1,2,4-triazol-3-yl)phenyl)thiourea] | 0% | 0% | – | –
CC(C)c1ccccc1NC(=S)Nc1ccc(-c2ncn(-c3ccc(OC(F)(F)F)cc3)n2)cc1 [F3, 1-(2-isopropylphenyl)-3-(4-(1-(4-(trifluoromethoxy)phenyl)-1H-1,2,4-triazol-3-yl)phenyl)thiourea] | 50 to 100% | 50 to 100% | – | –
Cc1ccc(C(C)C)c(NC(=S)NCCCc2ccc(-c3ncn(-c4ccc(OC(F)(F)F)cc4)n3)cc2)c1 [F29, 1-(2-isopropyl-5-methylphenyl)-3-(3-(4-(1-(4-(trifluoromethoxy)phenyl)-1H-1,2,4-triazol-3-yl)phenyl)propyl)thiourea] | 50 to 100% | 50 to 100% | 50 to 100% | A (80-100)
FC(F)(F)Oc1ccc(-n2cnc(-c3ccc(NC(=S)Nc4ccccc4-c4noc(C5CC5)n4)cc3)n2)cc1 [F23, 1-(2-(5-Cyclopropyl-1,2,4-oxadiazol-3-yl)phenyl)-3-(4-(1-(4-(trifluoromethoxy)phenyl)-1H-1,2,4-triazol-3-yl)phenyl)thiourea] | 50 to 100% | 50 to 100% | 50 to 100% | A (80-100)
O=C(Nc1ccc(F)cc1)Nc1ccc(-c2ncn(-c3ccc(OC(F)(F)F)cc3)n2)cc1 [F17, 1-(4-fluorophenyl)-3-(4-(1-(4-(trifluoromethoxy)phenyl)-1H-1,2,4-triazol-3-yl)phenyl)urea] | 0% | 0% | – | D (No activity noticed in this bioassay)
CC(C)c1ccccc1NC(=O)NCc1ccc(-c2ncn(-c3ccc(OC(F)(F)F)cc3)n2)cc1 [F65, 1-(2-Isopropylphenyl)-3-(4-(1-(4-(trifluoromethoxy)phenyl)-1H-1,2,4-triazol-3-yl)benzyl)urea] | 0% | 0 to 50% | 50 to 100% | D (No activity noticed in this bioassay)
CSc1ccc(NC(=S)Nc2ccc(-c3ncn(-c4ccc(OC(F)(F)F)cc4)n3)cc2)cn1 [F27, 1-(6-(Methylthio)pyridin-3-yl)-3-(4-(1-(4-(trifluoromethoxy)phenyl)-1H-1,2,4-triazol-3-yl)phenyl)thiourea] | 0% | 0% | – | –
CC(C)n1cnnc1-c1ccccc1NC(=O)Nc1ccc(-c2ncn(-c3ccc(OC(F)(F)F)cc3)n2)cc1 [F55, 1-(2-(4-Isopropyl-4H-1,2,4-triazol-3-yl)phenyl)-3-(4-(1-(4-(trifluoromethoxy)phenyl)-1H-1,2,4-triazol-3-yl)phenyl)urea] | 50 to 100% | 0% | 50 to 100% | A (80-100)
O=C(NCc1ccc(-c2ncn(-c3ccc(OC(F)(F)C(F)(F)F)cc3)n2)cc1)Nc1ccccc1-c1ccccc1 [F73, 1-([1,1′-Biphenyl]-2-yl)-3-(4-(1-(4-(perfluoroethoxy)phenyl)-1H-1,2,4-triazol-3-yl)benzyl)urea] | 50 to 100% | 50 to 100% | 50 to 100% | –
CC(C)c1ccccc1NC(=O)NCc1ccc(-c2ncn(-c3ccc(OC(F)(F)C(F)(F)F)cc3)n2)cc1 [F34, 1-(2-isopropylphenyl)-3-(4-(1-(4-(perfluoroethoxy)phenyl)-1H-1,2,4-triazol-3-yl)benzyl)urea] | 0% | 50 to 100% | 50 to 100% | –
O=C(Nc1ccc(-c2ncn(-c3ccc(OC(F)(F)F)cc3)n2)cc1)Nc1ccccc1-c1ccco1 [F21, 1-(2-(Furan-2-yl)phenyl)-3-(4-(1-(4-(trifluoromethoxy)phenyl)-1H-1,2,4-triazol-3-yl)phenyl)urea] | 50 to 100% | 50 to 100% | 50 to 100% | D (No activity noticed in this bioassay)
O=C(Nc1ccc(-c2ncn(-c3ccc(OC(F)(F)F)cc3)n2)cc1)Nc1ccccc1C1CC1 [F40, 1-(2-cyclopropylphenyl)-3-(4-(1-(4-(trifluoromethoxy)phenyl)-1H-1,2,4-triazol-3-yl)phenyl)urea] | 50 to 100% | 50 to 100% | 50 to 100% | –
COc1ccc(NC(=S)Nc2ccc(-c3ncn(-c4ccc(OC(F)(F)F)cc4)n3)cc2)cc1 [F71, 1-(4-Methoxyphenyl)-3-(4-(1-(4-(trifluoromethoxy)phenyl)-1H-1,2,4-triazol-3-yl)phenyl)thiourea] | 50 to 100% | 50 to 100% | – | –
COc1ccc(NC(=S)Nc2ccc(-c3ncn(-c4ccc(OC(F)(F)F)cc4)n3)cc2)c(C)c1 [F43, 1-(4-Methoxy-2-methylphenyl)-3-(4-(1-(4-(trifluoromethoxy)phenyl)-1H-1,2,4-triazol-3-yl)phenyl)thiourea] | 50 to 100% | 50 to 100% | – | –
CCOc1ccc(NC(=S)Nc2ccc(-c3ncn(-c4ccc(OC(F)(F)F)cc4)n3)cc2)cn1 [F14, 1-(6-Ethoxypyridin-3-yl)-3-(4-(1-(4-(trifluoromethoxy)phenyl)-1H-1,2,4-triazol-3-yl)phenyl)thiourea] | 0% | 0% | – | –
FC(F)(F)Oc1ccc(-n2cnc(-c3ccc(NC(=S)Nc4ccccc4-c4ccco4)cc3)n2)cc1 [F30, 1-(2-(Furan-2-yl)phenyl)-3-(4-(1-(4-(trifluoromethoxy)phenyl)-1H-1,2,4-triazol-3-yl)phenyl)thiourea] | 50 to 100% | 50 to 100% | 50 to 100% | A (80-100)
Cc1ccc(C(C)C)c(NC(=O)Nc2ccc(-c3ncn(-c4ccc(OC(F)(F)C(F)(F)F)cc4)n3)cc2)c1 [F57, 1-(2-Isopropyl-5-methylphenyl)-3-(4-(1-(4-(perfluoroethoxy)phenyl)-1H-1,2,4-triazol-3-yl)phenyl)urea] | 50 to 100% | 50 to 100% | 50 to 100% | D (No activity noticed in this bioassay)
FC(F)(F)Oc1ccc(-n2cnc(-c3ccc(NC(=S)Nc4ccc5ccccc5c4)cc3)n2)cc1 [F25, 1-(Naphthalen-2-yl)-3-(4-(1-(4-(trifluoromethoxy)phenyl)-1H-1,2,4-triazol-3-yl)phenyl)thiourea] | 50 to 100% | 50 to 100% | – | –

Source: US9445594B2, “Molecules having certain pesticidal utilities, intermediates, compositions, and processes, related thereto” (priority 2014, dated 2016)
